According to patent publication US4116972A, “Anti-inflammatory 1-oxo-isoindoline derivatives and processes for their preparation” (Fuji Chemical Industry Company Limited, priority 1975, dated 1978):
Where two headings read alike, the source gives them in different places.

Assays:
[1] = test system: male rats of the Wistar strain; experiment: Analgesic effect, Pressure Method; type: in vivo, rat (male
Method: (§1) The rats were tested in groups of six. Only those animals having a normal pain threshold in both hind legs were selected for the tests. The compound to be tested was suspended in 0.3% carboxymethylcellulose aqueous solution and administered orally. […] The analgesic activity was tested by the Pressure Method [Brit. J. […] Int.

stomach [2] = experiment: Effect on gastric ulcer, second method (repeated oral administration); type: in vivo, rat (male, Donryu strain)
Method: Male rats of the Donryu strain having a body weight of 150-200 g were starved for 24 hours and the effects of administration of Compound 1 and its aluminium salt (Compound 7) on the occurrence of gastric ulcers were determined, as were the effects of other known anti-inflammatory agents.
(§2) Each compound to be tested was suspended in a 0.3% solution of carboxymethylcellulose in physiological saline and administered in an amount of 1 ml per 200 g body weight of the rat. Determination of the occurrence of gastric inflammation and ulceration was calculated by adding the sizes of ulcerated regions (mm^2) of each rat observed within a lattice (width 1 cm, divided into 10 equal parts) of a stereomicroscope. The determination was made on the stomach removed after sacrifice of the animal and then fixed for 10 minutes with 1% formalin.
As a second method, first oral administration was effected after 24 hours starvation and a second oral administration was effected after a further 12 hours starvation. Each animal was then sacrificed, under ether anaesthesia, 6 hours after the second administration. This method was employed to observe the effect after repeated administration of the compounds of the invention.

stomach [3] = experiment: Effect on gastric ulcer, first method (single oral administration); type: in vivo, rat (male, Donryu strain); details: 18 hours
Method: as §2
In a first method, the compound to be tested was administered orally after 24 hours starvation and then, after a further 18 hours, the animal was sacrificed, under ether anaesthesia.

[4] = test system: male rats of the Wistar strain; experiment: Analgesic effect, Randall-Selitto Method; type: in vivo, rat (male
Method: as §1

[5] = test system: male rats of the Wistar strain; experiment: Analgesic effect, overall (Pressure, Acetic Acid Raising and Randall-Selitto methods); type: in vivo, rat (male; details: oral
Method: as §1

[6] = test system: carrageenin-induced oedema; experiment: Carrageenin-oedema test in rats (anti-inflammatory activity); type: in vivo, rat (male, Wistar strain)
Method: Compound 1 was administered through a stomach tube, in suspension in a 0.3% by weight carboxymethylcellulose aqueous solution, in an amount of 6.25 mg/kg or 12.5 mg/kg to male rats of the Wistar strain having a body weight of 120-130 g. After 1 hour, inflammation was induced by injecting subcutaneously […] of a 1% carrageenin suspension into the plantar tissue of the right hind paw of each rat. Paw oedema was measured volumetrically,immediately before and also every hour for 5 hours after the carrageenin injection, and the response, measured as the oedema effect (E) was calculated by the following equation: […]
where Vo and VT represents the paw volumes O and T after the carrageenin injection, respectively.
The tests were also carried out on a control group of rats to which no anti-inflammatory agent had been administered. Each test was carried out on a group of six rats.
The inhibitory effect was measured by the inhibitory ratio (IR), calculated from the following equation:
IR = […] 100 (%)
where Ec represents the oedema ratio of the control rats and E represents the oedema ratio of the rats treated with Compound 1.
The inhibitory ratio was determined on administration of various amounts of Compound 1 and the results obtained 3 hours after carrageenin injection are shown in Table 1.

[7] = test system: male rats of the Wistar strain; experiment: Analgesic effect, Acetic Acid Raising Method; type: in vivo, rat (male; parameters: unit not given here
Acute toxicity (oral) = type: in vivo; details: in vivo; for LD50 at 168 h: rat, po
Method: (§3) Compound 1 was administered in the amounts shown in Table 3 to male rats of the Wistar strain having a body weight of 110-130 g. The rats were tested in groups of eight and similar tests were applied to similar groups of female rats. The compound to be tested was suspended in a 0.3% aqueous solution of carboxymethylcellulose and was administered through a stomach tube. The lethal dose 50% (LD50) and credibility limit 95% (CL) were calculated from the lethal effect by the method of Litchield and Wilcoxon [J. Pharmac. Exp. Ther., 96, 99 (1949)]; the lethal effect was expressed as X/n, in which X is the number of animals which were dead one week after administration and n is the total number of animals used in the test.

[8] = test system: rats of the Wistar strain; experiment: Acute toxicity (oral); type: in vivo; details: one week after administration
Method: as §3

Solubility = type: physicochemical
[9] = 200 × 2 mg/kg P.O., Aspirin marked * (significant difference vs phenylbutazone at p = 0.01)
[10] = 50 × 2 mg/kg P.O., vs phenylbutazone: Compound 1 * (p = 0.01), Compound 7 ** (p = 0.1), 2 mg/kg
[11] = 50 mg/kg P.O., Compound 7 marked ** (significant difference vs phenylbutazone at p = 0.01)

In the case of `Cc1c(N(C)C)c(=O)n(-c2ccccc2)n1C` [Aminopyrine], the “Pressure method, Ratio (average)” value ([1]; 150 mg/kg orally) is reported as 2.02.
In the case of `CC(=O)Oc1ccccc1C(=O)O` [Aspirin], the “Size of ulcerated region of stomach” value (stomach [2]; [9]) is reported as 27.2 ± 3.01 mm^2 and the “Size of ulcerated region of stomach” value (stomach [3]; 200 mg/kg P.O.) is reported as 9.7 ± 1.36 mm^2.
In the case of `CC(C(=O)O)c1ccc(N2CC3=C(CC=CC3)C2=O)cc1` (stereo not drawn) [Compound 1, α-[4-(1-oxo-4,7-dihydro-2-isoindolinyl)phenyl]propionic acid], the “Randall-Selitto method, Analgesic index, Inflamed foot” value ([4]; 10 mg/kg orally) is reported as 1.21, the “Randall-Selitto method, Analgesic index, Normal foot” value ([4]; 10 mg/kg orally) is reported as 1.04 and the “analgesic effect (in words)” value [5] is reported as “weak”. For the same compound, the Inhibitory ratio ([6]; 5 mg/kg oral, 3 hours after carrageenin injection) was 33.2%, the Inhibitory ratio ([6]; 10 mg/kg oral, 3 hours after carrageenin injection) was 57.1% and the Inhibitory ratio ([6]; 20 mg/kg oral, 3 hours after carrageenin injection) was 64.7%. The Inhibitory ratio ([6]; 40 mg/kg oral, 3 hours after carrageenin injection) was 69.0%, the “dose dependence of inhibitory effect (in words)” value ([6]; 5-40 mg/kg, 3 hours after carrageenin injection) was “increased in rough proportion to the amount of Compound 1 administered” and the “inhibitory effect over the first 5 hours (in words)” value ([6]; 6.25 or 12.5 mg/kg oral) was “strong inhibitory effect appeared over the first 5 hours”. For the same compound, the “onset of inhibitory effect (in words)” value ([6]; 6.25 or 12.5 mg/kg oral) was “clearly appeared at the end of the first hour after carrageenin injection”, the ED50 ([6]; 3 h, oral, rat carrageenin oedema, range printed 4.0-30.9 mg/kg, read-out: ED50 (effective dose 50%)) was 11.1 mg/kg and the “inhibitory effect on carrageenin-induced oedema (in words)” value ([6]; rat hind paw oedema) was “particularly strong inhibitory effect”. The “Acetic Acid Raising method, a (graded response)” value ([7]; 100 mg/kg orally) was 21.0, the “Acetic Acid Raising method, b (all or none response)” value (“Acetic Acid Raising method, b” below) ([7]; 100 mg/kg orally) was 7 and the selectivity ratio (Acute toxicity (oral); oral LD50 male rat / ED50 carrageenin oedema rat, read-out: therapeutic index (LD50/ED50)) was 29.6. The LD50 at 168 h (Acute toxicity (oral); female rats, 95% CL (250-476), read-out: LD50, Female) was 345 mg/kg, the LD50 at 168 h (Acute toxicity (oral); male rats, 95% CL (238-453), read-out: LD50, Male) was 328 mg/kg and the “Lethal effect, Female (dead/total)” value ([8]; 180 mg/kg oral) was 1/8. The “Lethal effect, Male (dead/total)” value ([8]; 180 mg/kg oral) was 0/8, the “Lethal effect, Female (dead/total)” value ([8]; 234 mg/kg oral) was 2/8 and the “Lethal effect, Male (dead/total)” value ([8]; 234 mg/kg oral) was 2/8. The “Lethal effect, Female (dead/total)” value ([8]; 304 mg/kg oral) was 3/8, the “Lethal effect, Male (dead/total)” value ([8]; 304 mg/kg oral) was 4/8 and the “Lethal effect, Female (dead/total)” value ([8]; 395 mg/kg oral) was 5/8. The “Lethal effect, Male (dead/total)” value ([8]; 395 mg/kg oral) was 5/8, the “Lethal effect, Female (dead/total)” value ([8]; 514 mg/kg oral) was 6/8 and the “Lethal effect, Male (dead/total)” value ([8]; 514 mg/kg oral) was 6/8. For the same compound, the “Lethal effect, Female (dead/total)” value ([8]; 668 mg/kg oral) was 8/8, the “Lethal effect, Male (dead/total)” value ([8]; 668 mg/kg oral) was 8/8 and the “Size of ulcerated region of stomach” value (stomach [2]; [10]) was 11.3 ± 2.00 mm^2. The “Pressure method, Ratio (average)” value ([1]; 150 mg/kg orally) was 1.36 and the “Size of ulcerated region of stomach” value (stomach [3]; [11]) was 4.1 ± 0.46 mm^2.
For `CC(C(=O)O)c1ccc(N2CC3=C(CC=CC3)C2=O)cc1` (stereo not drawn) [Compound 7, Aluminium α-[4-(1-oxo-4,7-dihydro-2-isoindolinyl)phenyl]propionate], the “solubility in dimethyl sulphoxide” value (Solubility; dimethyl sulphoxide) was “slightly soluble”, the “solubility in most organic solvents” value (Solubility; most organic solvents) was “sparingly soluble” and the “Size of ulcerated region of stomach” value (stomach [2]; [10]) was 10.3 ± 1.00 mm^2. For the same compound, the “Size of ulcerated region of stomach” value (stomach [3]; [11]) was 2.4 ± 0.49 mm^2.
In the case of `CC(C)Cc1ccc(C(C)C(=O)O)cc1` (centres unmarked) [Ibuprofen], the “Randall-Selitto method, Analgesic index, Inflamed foot” value ([4]; 100 mg/kg orally) is reported as 1.20, the “Randall-Selitto method, Analgesic index, Normal foot” value ([4]; 100 mg/kg orally) is reported as 1.05 and the “Acetic Acid Raising method, a (graded response)” value ([7]; 200 mg/kg orally) is reported as 21.9. The “Acetic Acid Raising method, b” value ([7]; 200 mg/kg orally) was 20.
With `COc1ccc2c(c1)c(CC(=O)O)c(C)n2C(=O)c1ccc(Cl)cc1` [Indomethacin] the “Size of ulcerated region of stomach” value (stomach [2]; 20 × 2 mg/kg P.O.) was 15.3 ± 1.20 mm^2 and the “Size of ulcerated region of stomach” value (stomach [3]; 20 mg/kg P.O.) was 8.0 ± 1.22 mm^2.
With `CC(C(=O)O)c1cccc(C(=O)c2ccccc2)c1` (centres unmarked) [Ketoprofen] the “Randall-Selitto method, Analgesic index, Inflamed foot” value ([4]; 10 mg/kg orally) was 1.20, the “Randall-Selitto method, Analgesic index, Normal foot” value ([4]; 10 mg/kg orally) was 1.03 and the “Acetic Acid Raising method, a (graded response)” value ([7]; 100 mg/kg orally) was 53.8. For the same compound, the “Acetic Acid Raising method, b” value ([7]; 100 mg/kg orally) was 60 and the “Pressure method, Ratio (average)” value ([1]; 100 mg/kg orally) was 1.40.
With `Cc1cccc(Nc2ccccc2C(=O)O)c1C` [Mefenamic acid] the “Acetic Acid Raising method, a (graded response)” value ([7]; 150 mg/kg orally) was 45.4 and the “Acetic Acid Raising method, b” value ([7]; 150 mg/kg orally) was 60.
For `CCCCC1C(=O)N(c2ccccc2)N(c2ccccc2)C1=O` [Phenylbutazone], the “Acetic Acid Raising method, a (graded response)” value ([7]; 200 mg/kg orally) was 25.8, the “Acetic Acid Raising method, b” value ([7]; 200 mg/kg orally) was 20 and the “Size of ulcerated region of stomach” value (stomach [2]; [9]) was 17.2 ± 1.93 mm^2. For the same compound, the “Size of ulcerated region of stomach” value (stomach [3]; 200 mg/kg P.O.) was 6.6 ± 1.31 mm^2.
